Where “and” joins values, the source holds several entries; their conditions need not be identical. Identical values can stand only once. Counter-ions that a name gives are not always drawn. Like-named read-outs stand apart in the source and are kept apart here.
Tests used:
[1] = system: formalin-induced flinching; experiment: animal or person; format: in vivo, male Sprague-Dawley rats; settings: for inhibition in vivo at 0.3 µM: Rattus norvegicus, read-out: Formalin (% A @ 300 nM) i. paw; for Formalin A50 mg/kg s.c.: sc
[2] = biological target: cloned human kappa receptor (Homo sapiens, UniProt P41145); experiment: biochemical; format: binding
Chain of cloned human kappa receptor (P41145 whole entry): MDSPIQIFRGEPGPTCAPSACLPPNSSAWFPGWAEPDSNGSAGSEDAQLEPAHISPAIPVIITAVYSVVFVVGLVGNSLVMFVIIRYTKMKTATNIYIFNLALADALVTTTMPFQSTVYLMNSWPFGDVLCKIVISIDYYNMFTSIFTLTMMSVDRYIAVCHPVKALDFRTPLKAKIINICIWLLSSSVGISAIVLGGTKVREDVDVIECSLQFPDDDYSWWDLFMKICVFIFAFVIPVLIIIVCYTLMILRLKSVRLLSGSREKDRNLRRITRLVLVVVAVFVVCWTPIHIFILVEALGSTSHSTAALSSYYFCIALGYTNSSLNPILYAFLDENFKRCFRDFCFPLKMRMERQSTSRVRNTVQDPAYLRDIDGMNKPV

Row | Structure (SMILES) | Ki ([2]; Ki, nM 3H-Diprenorphin) | inhibition in vivo at 0.3 µM [1] [%] | Ki ([2]; Ki (nM) [3H]-Diprenorphin κ) [nM] | further results
1 | CC(=O)N1CCN(C(=O)Cc2ccc(C(F)(F)F)cc2)C(CN2CCCC2)C1 (racemic) [(R,S-10b), hydrochloride] | 26 nM and 24 nM | – | – | Late Phase Formalin, % @ 300; i.paw ([1]; rat, in vivo): 89% @ 300
2 | COC(=O)N1CCN(C(=O)Cc2ccccc2N(S(C)(=O)=O)S(C)(=O)=O)C(CN2CCCC2)C1 (racemic) [Example 1d, Methyl-4-[(2-[N,N-bis-methylsulfonamido]phenyl)acetyl]-3-(R,S)-[(1-pyrrolidinyl)methyl]-1-piperazinecarboxylate hydrochloride] | 7.6 nM | 77 | – | –
3 | CNS(=O)(=O)c1ccccc1CC(=O)N1CCN(C(=O)OC)CC1CN1CCCC1 (racemic) [Example 1e, Methyl-4-[(2-[N-methylamino)sulfamyl]phenyl)acetyl]-3-(R,S)-[(1-pyrrolidinyl)methyl]-1-piperazinecarboxylate hydrochloride] | 14 nM | 55 | – | –
4 | O=C(Cc1ccc(C(F)(F)F)cc1)N1CCN(C(=O)C(F)(F)F)CC1CN1CCCC1 (racemic) [Example 1h, 4-Trifluoroacetyl-1-[(-4-trifluoromethylphenyl)acetyl]-2-(R,S)-(1-pyrrolidinyl)methyl]piperazine hydrochloride] | 50 nM | 100 | – | –
5 | CN(C(=O)Cc1ccc(Cl)c(Cl)c1)[C@H](CN1CCCC1)c1cccc(NS(N)(=O)=O)c1 (racemic) [Example 3c, 2-(3,4-Dichlorophenyl)-N-methyl-N-[(1R,S)-1-(3-sulfamidophenyl)-2-(1-pyrrolidinyl)ethyl]acetamide hydrochloride] | – | – | 0.12 | Late Phase Formalin A50 ([1]; rat, in vivo): 0.27 mg/kg
6 | COc1ccc(C(CN2CCCC2)N(C)C(=O)Cc2ccccc2NS(C)(=O)=O)cc1 (racemic) [Example 128] | – | – | – | Late Phase Formalin (i. paw), % @ 300 ([1]; rat, in vivo): 56% @ 300; Ki ([2]; Table IIIB, read-out: Ki(nM) [3H]-Diprenorphin κ): 110 nM
7 | CN(C(=O)Cc1ccccc1NS(C)(=O)=O)C(CN1CCCC1)c1ccc(O)cc1 (racemic) [Example 129A, (R,S)-2-(2-N-Methylsulfonamido-2-aminophenyl)-N-methyl-N-1-(4-hydroxyphenyl)-2-(1-pyrrolidinyl)ethyl]acetamide] | – | – | 59 | Late Phase Formalin (i. paw), % @ 300 ([1]; rat, in vivo): 46% @ 300
8 | CNS(=O)(=O)c1ccccc1CC(=O)N(C)C(CN1CCCC1)c1ccccc1F (racemic) [Example 147] | – | – | 10 | Late Phase Formalin (i. paw), % @ 300 ([1]; rat, in vivo): 56% @ 300
9 | C=CCN1CCN(C(=O)Cc2ccc(Cl)c(Cl)c2)[C@H](CN2CCCC2)C1 [Example 1ff, 4-Allyl-1-[(3,4-dichlorophenyl)acetyl]-2-(R)-[(1-pyrrolidinyl)methyl]piperazine hydrochloride] | 0.58 nM | 98 | – | –
10 | COC(=O)N1CCN(C(=O)Cc2ccc(Cl)c(Cl)c2)[C@@H](CN2CCC[C@H]2CO)C1 [Example 1ii, Methyl-4-[(3,4-dichlorophenyl)acetyl]-3-(S)-[(2-(S)-pyrrolidinemethanol)methyl]-1-piperazinecarboxlate hydrochloride] | 21.5 nM | 60 | – | –
11 | CS(=O)(=O)O[C@H]1CCN(CC2CN(S(C)(=O)=O)CCN2C(=O)Cc2ccc(Cl)c(Cl)c2)C1 (stereo partly drawn) [Example 1jj, 4-Methanesulfonyl-1-[(3,4-dichlorophenyl)acetyl]-2-(R,S)-[3-(S)-methanesulfonate-1-(pyrrolidinyl)methyl]piperazine hydrochloride] | 11.5 nM | 49 | – | –
12 | CS(=O)(=O)N1CCN(C(=O)Cc2ccc(Cl)c(Cl)c2)C(CN2CC[C@H](OC(=O)Cc3ccc(Cl)c(Cl)c3)C2)C1 (stereo partly drawn) [Example 1kk, 4-Methylsulphonyl-1-[(3,4-dichlorophenyl)acetyl]-2-(R,S)-[3-(S)-(3′,4′dichlorophenyl acetate)-1-(pyrrolidinyl)methyl]piperazine hydrochloride] | 5.1 nM | 52 | – | –
13 | COC(=O)N1CCN(C(=O)Cc2ccc(Cl)c(Cl)c2)C(CN2CCCC2CO)C1 [Example 1l, Methyl-4-[(3,4-dichlorophenyl)acetyl]-3-(R)-[(2-(S)-pyrrolidinemethanol)methyl]-1-piperazinecarboxylate hydrochloride] | 3.5 nM | – | – | Formalin A50 mg/kg s.c. ([1]; rat, in vivo): 1.7 mg/kg
14 | CS(=O)(=O)N1CCN(C(=O)Cc2ccc(C(F)(F)F)cc2)C(CN2CC[C@H](O)C2)C1 (stereo partly drawn) [Example 1nn, 4-Methylsulphonyl-1-[(4-α,α,α-triflouromethylphenyl)acetyl]-2-(R,S)-[(3-(S)-hydroxy-1-pyrrolidinyl)methyl]piperazine hydrochloride] | 2.33 nM | – | – | Formalin A50 mg/kg s.c. ([1]; rat, in vivo): 7.1 mg/kg
15 | CCOP(=O)(Nc1cccc([C@@H](CN2CCCC2)N(C)C(=O)Cc2ccc(Cl)c(Cl)c2)c1)OCC [Example 3g, 2-(3,4-Dichlorophenyl)-N-methyl-N-[(1S)-1-[3-(diethyl Phosphoryl)amino]phenyl)-2-(1-pyrrolidinyl)ethyl]acetamide hydrochloride] | – | – | 0.12 | Late Phase Formalin A50 ([1]; rat, in vivo): 4.4 mg/kg
16 | CC(C)COC(=O)CNC(=O)CCC(=O)Nc1cccc([C@@H](CN2CCCC2)N(C)C(=O)Cc2ccc(Cl)c(Cl)c2)c1 [Example 3i, 2-(3,4-Dichlorophenyl)-N-methyl-N-{(1S)-1-[3-(3-(((iso-butoxycarbonyl)-methyl)aminocarbonyl)propionamido)phenyl]-2-(1-pyrrolidinyl)ethyl}acetamide hydrochloride] | – | – | 0.14 | Late Phase Formalin, % @ 300 ([1]; rat, in vivo): 23% @ 300
17 | CN(C(=O)Cc1ccc(Cl)c(Cl)c1)[C@H](CN1CCCC1)c1cccc(NC(=O)CCC(=O)NCC(=O)O)c1 [Example 3j, 2-(3,4-Dichlorophenyl)-N-methyl-N-{(1R,S)-1-[3-(3-(((hydroxycarbonyl)-methyl)aminocarbonyl)propionamido)phenyl]-2-(1-pyrrolidinyl)ethyl}acetamide hydrochloride] | – | – | 2.3 | Late Phase Formalin, % @ 300 ([1]; rat, in vivo): 38% @ 300
18 | CNS(=O)(=O)c1cc(CC(=O)N(C)[C@H](CN2CCCC2)c2ccccc2)ccc1Cl.Cl [Example 3l, 2-[3-(N-Methylsulfamoyl)-4-chlorophenyl]-N-methyl-N-{[1S]-1-phenyl-2-[1-pyrrolidinyl]ethyl}acetamide hydrochloride] | – | – | 3.8 | Late Phase Formalin, % @ 300 ([1]; rat, in vivo): 73% @ 300
19 | COC(=O)CNC(=O)c1ccccc1CC(=O)N(C)[C@H](CN1CCCC1)c1ccccc1 [Example 3mm, Methyl N-[2-(2-pheny)-N-methyl-N-{[1S]-1-phenyl-2-(1-pyrrolidinyl)ethyl}acetamido]2-oxo-glycinate hydrochloride] | – | – | 16.4 | Late Phase Formalin, % @ 300 ([1]; rat, in vivo): 53% @ 300
20 | CNS(=O)(=O)c1cccc(CC(=O)N(C)[C@H](CN2CCCC2)c2ccccc2)c1OC [Example 3u] | – | – | 1 | Late Phase Formalin, % @ 300 ([1]; rat, in vivo): 48% @ 300
21 | COc1ccc(CC(=O)N(C)[C@H](CN2CCCC2)c2ccccc2)cc1NS(C)(=O)=O [Example 122, 2-(3-N-Methylsulfonamido-3-amino-4-methoxyphenyl)-N-methyl-N-[(1S)-1-phenyl-2-(1-pyrrolidinyl)ethyl]acetamide methane sulfonate] | – | – | 0.8 | Late Phase Formalin (i. paw), % @ 300 ([1]; rat, in vivo): 85% @ 300
22 | CN(C(=O)Cc1ccc(OCc2ccccc2)c(NS(C)(=O)=O)c1)[C@H](CN1CCCC1)c1ccccc1 [Example 123, 2-(3-N-Methylsulfonamido-3-amino-4-benzyloxyphenyl)-N-methyl-N-[(1S)-1-phenyl-2-(1-pyrrolidinyl)ethyl]acetamide] | – | – | 23.6 | Late Phase Formalin (i. paw), % @ 300 ([1]; rat, in vivo): 87% @ 300

From US20050020576A1, “Kappa agonist compounds and pharmaceutical formulations thereof” (priority 1996, published 2005)
